In ChEMBL document CHEMBL1201862, “PubChem BioAssay data set” (2004):
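Five compound concentrations were applied to cells in 96-well plates for 48 hours; endpoints were derived by simple linear interpolation of the resulting dose-response curve. Abbreviation: GI50, concentration required for 50% inhibition of growth.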 Calls of active or inactive are those of the source. Cut-off read from the data, not from the text of the source: active = GI50 up to about 1.1 µM and inactive = higher.

Legend:
Assay in all cases: growth of human tumour cells (NCI), 48 h
[1] = system: SR
[2] = system: OVCAR-5
[3] = system: MCF7
[4] = system: TK-10
[5] = system: UACC-257
[6] = system: U-251
[7] = system: HCT-15
[8] = system: SK-OV-3
[9] = system: SK-MEL-28
[10] = system: HOP-62
[11] = system: COLO 205
[12] = system: HL-60
[13] = system: HT-29
[14] = system: BT-549
[15] = system: CAKI-1
[16] = system: SF-539
[17] = system: MDA-N
[18] = system: A549
[19] = system: SK-MEL-2
[20] = system: NCI-H23
[21] = system: SW-620
[22] = system: SN12C
[23] = system: SF-295
[24] = system: M14
[25] = system: 786-0
[26] = system: RXF 393
[27] = system: NCI-H522
[28] = system: OVCAR-8
[29] = system: MDA-MB-231
[30] = system: NCI-H226
[31] = system: HCT-116
[32] = system: DU-145
[33] = system: MDA-MB-435
[34] = system: EKVX
[35] = system: HCC 2998
[36] = system: NCI/ADR-RES
[37] = system: PC-3
[38] = system: SNB-19
[39] = system: T47D
[40] = system: SK-MEL-5
[41] = system: RPMI-8226
[42] = system: CCRF-CEM
[43] = system: K562
[44] = system: ACHN
[45] = system: Hs-578T
[46] = system: UACC-62
[47] = system: OVCAR-4
[48] = system: IGROV-1
[49] = system: SF-268
[50] = system: OVCAR-3
[51] = system: NCI-H460
[52] = system: UO-31
[53] = system: KM12
[54] = system: MOLT-4
[55] = system: HOP-92
[56] = system: Malme-3M
[57] = system: SNB-75
[58] = system: LOX IMVI

## O=S(=O)(O)c1ccc2c(/N=N/c3ccc(Sc4ccc(/N=N/c5c(O)ccc6cc(S(=O)(=O)O)ccc56)cc4)cc3)c(O)ccc2c1
[1]
  GI50: > 100 µM (inactive)
[2]
  GI50: > 100 µM (inactive)
[3]
  GI50: > 100 µM (inactive)
[4]
  GI50: > 100 µM (inactive)
[5]
  GI50: > 100 µM (inactive)
[6]
  GI50: > 100 µM (inactive)
[7]
  GI50: > 100 µM
[8]
  GI50: > 100 µM (inactive)
[9]
  GI50: > 100 µM (inactive)
[10]
  GI50: > 100 µM (inactive)
[11]
  GI50: > 100 µM (inactive)
[12]
  GI50: > 100 µM (inactive)
[13]
  GI50: > 100 µM (inactive)
[14]
  GI50: > 100 µM (inactive)
[15]
  GI50: > 100 µM (inactive)
[16]
  GI50: > 100 µM (inactive)
[17]
  GI50: > 100 µM (inactive)
[18]
  GI50: > 100 µM (inactive)
[19]
  GI50: > 100 µM (inactive)
[20]
  GI50: > 100 µM (inactive)
[21]
  GI50: > 100 µM (inactive)
[22]
  GI50: > 100 µM (inactive)
[23]
  GI50: > 100 µM (inactive)
[24]
  GI50: > 100 µM (inactive)
[25]
  GI50: > 100 µM (inactive)
[26]
  GI50: > 100 µM (inactive)
[27]
  GI50: > 100 µM (inactive)
[28]
  GI50: > 100 µM (inactive)
[29]
  GI50: > 100 µM (inactive)
[30]
  GI50: > 100 µM (inactive)
[31]
  GI50: > 100 µM (inactive)
[32]
  GI50: > 100 µM (inactive)
[33]
  GI50: > 100 µM (inactive)
[34]
  GI50: > 100 µM (inactive)
[35]
  GI50: > 100 µM (inactive)
[36]
  GI50: > 100 µM (inactive)
[37]
  GI50: > 100 µM (inactive)
[38]
  GI50: > 100 µM (inactive)
[39]
  GI50: > 100 µM (inactive)
[40]
  GI50: > 100 µM (inactive)
[41]
  GI50: > 100 µM (inactive)
[42]
  GI50: > 100 µM (inactive)
[43]
  GI50: > 100 µM (inactive)
[44]
  GI50: > 100 µM (inactive)
[45]
  GI50: > 100 µM (inactive)
[46]
  GI50: > 100 µM (inactive)
[47]
  GI50: > 100 µM (inactive)
[48]
  GI50: > 100 µM (inactive)
[49]
  GI50: > 100 µM (inactive)
[50]
  GI50: > 100 µM (inactive)
[51]
  GI50: > 100 µM (inactive)
[52]
  GI50: > 100 µM (inactive)
[53]
  GI50: > 100 µM (inactive)
[54]
  GI50: > 100 µM (inactive)
[55]
  GI50: > 100 µM (inactive)
[56]
  GI50: > 100 µM (inactive)

## NC(CCCCCP(=O)(c1ccccc1)C1C=CC=CC1)C(=O)O (centres undefined)
[1]
  GI50: > 100 µM (inactive)
[2]
  GI50: > 100 µM (inactive)
[3]
  GI50: > 100 µM (inactive)
[4]
  GI50: > 100 µM (inactive)
[5]
  GI50: > 100 µM (inactive)
[6]
  GI50: > 100 µM (inactive)
[7]
  GI50: > 100 µM
[8]
  GI50: > 100 µM (inactive)
[9]
  GI50: > 100 µM (inactive)
[11]
  GI50: > 100 µM (inactive)
[12]
  GI50: > 100 µM (inactive)
[57]
  GI50: > 100 µM (inactive)
[13]
  GI50: > 100 µM (inactive)
[14]
  GI50: > 100 µM (inactive)
[15]
  GI50: > 100 µM (inactive)
[16]
  GI50: > 100 µM (inactive)
[17]
  GI50: > 100 µM (inactive)
[18]
  GI50: > 100 µM (inactive)
[19]
  GI50: > 100 µM (inactive)
[20]
  GI50: > 100 µM (inactive)
[21]
  GI50: > 100 µM (inactive)
[22]
  GI50: > 100 µM (inactive)
[23]
  GI50: > 100 µM (inactive)
[24]
  GI50: > 100 µM (inactive)
[26]
  GI50: > 100 µM (inactive)
[27]
  GI50: > 100 µM (inactive)
[28]
  GI50: > 100 µM (inactive)
[29]
  GI50: > 100 µM (inactive)
[31]
  GI50: > 100 µM (inactive)
[32]
  GI50: > 100 µM (inactive)
[33]
  GI50: > 100 µM (inactive)
[34]
  GI50: > 100 µM (inactive)
[35]
  GI50: > 10 µM (inactive)
[36]
  GI50: > 100 µM (inactive)
[37]
  GI50: > 100 µM (inactive)
[38]
  GI50: > 100 µM (inactive)
[39]
  GI50: 57.8 µM (inactive)
[40]
  GI50: > 100 µM (inactive)
[41]
  GI50: > 100 µM (inactive)
[42]
  GI50: > 100 µM (inactive)
[43]
  GI50: > 100 µM (inactive)
[44]
  GI50: > 100 µM (inactive)
[45]
  GI50: > 100 µM (inactive)
[46]
  GI50: 51.2 µM (inactive)
[58]
  GI50: > 100 µM (inactive)
[47]
  GI50: > 100 µM (inactive)
[48]
  GI50: > 100 µM (inactive)
[49]
  GI50: > 100 µM (inactive)
[50]
  GI50: > 100 µM (inactive)
[51]
  GI50: > 100 µM (inactive)
[52]
  GI50: > 100 µM (inactive)
[53]
  GI50: > 100 µM (inactive)
[54]
  GI50: > 100 µM (inactive)
[55]
  GI50: > 100 µM (inactive)

## CC(C)OCC1CC(CC(=O)Nc2nncs2)C(=O)O1 (centres undefined)
[1]
  GI50: > 100 µM (inactive)
[2]
  GI50: > 100 µM (inactive)
[3]
  GI50: > 100 µM (inactive)
[4]
  GI50: > 100 µM (inactive)
[5]
  GI50: > 100 µM (inactive)
[6]
  GI50: > 100 µM (inactive)
[7]
  GI50: > 100 µM
[8]
  GI50: > 100 µM (inactive)
[9]
  GI50: > 100 µM (inactive)
[10]
  GI50: > 100 µM (inactive)
[11]
  GI50: > 100 µM (inactive)
[57]
  GI50: > 100 µM (inactive)
[13]
  GI50: > 100 µM (inactive)
[14]
  GI50: > 100 µM (inactive)
[15]
  GI50: > 100 µM (inactive)
[16]
  GI50: > 100 µM (inactive)
[17]
  GI50: > 100 µM (inactive)
[18]
  GI50: > 100 µM (inactive)
[19]
  GI50: > 100 µM (inactive)
[20]
  GI50: > 100 µM (inactive)
[21]
  GI50: > 100 µM (inactive)
[22]
  GI50: > 100 µM (inactive)
[23]
  GI50: > 100 µM (inactive)
[24]
  GI50: > 100 µM (inactive)
[25]
  GI50: > 100 µM (inactive)
[28]
  GI50: > 100 µM (inactive)
[29]
  GI50: > 100 µM (inactive)
[30]
  GI50: > 100 µM (inactive)
[31]
  GI50: > 100 µM (inactive)
[32]
  GI50: > 100 µM (inactive)
[33]
  GI50: > 100 µM (inactive)
[34]
  GI50: > 100 µM (inactive)
[35]
  GI50: > 100 µM (inactive)
[36]
  GI50: > 100 µM (inactive)
[37]
  GI50: > 100 µM (inactive)
[38]
  GI50: > 100 µM (inactive)
[39]
  GI50: > 100 µM (inactive)
[40]
  GI50: > 100 µM (inactive)
[41]
  GI50: > 100 µM (inactive)
[42]
  GI50: > 100 µM (inactive)
[43]
  GI50: > 100 µM (inactive)
[44]
  GI50: > 100 µM (inactive)
[45]
  GI50: > 100 µM (inactive)
[46]
  GI50: > 100 µM (inactive)
[58]
  GI50: > 100 µM (inactive)
[47]
  GI50: > 100 µM (inactive)
[48]
  GI50: > 100 µM (inactive)
[49]
  GI50: > 100 µM (inactive)
[50]
  GI50: > 100 µM (inactive)
[51]
  GI50: > 100 µM (inactive)
[52]
  GI50: > 100 µM (inactive)
[53]
  GI50: > 100 µM (inactive)
[54]
  GI50: > 100 µM (inactive)
[55]
  GI50: > 100 µM (inactive)
